Results on two compounds are retold here after US20120108559A1, “RECEPTOR ACTIVATOR OF THE RANK RECEPTOR COMPLEX INHIBITOR” (THE TRUSTEES OF THE UNIVERSITY OF PENNSYLVANIA, priority 2009, published 2012).

In this assay the test system is murine osteoclast precursors. In words: TRANCE (RANKL)-induced osteoclast formation in vitro, TRAP assay. It counts as cell-based. The following applies: osteoclast precursors cultured 3 days with murine CSF-1 (30 ng/mL) and TRANCE (300 ng/mL); FIG. 1. How it is done: The effects of the compound of Formula II-A-1 on TRANCE-mediated osteoclastogenesis were evaluated against murine osteoclast precursors using a TRAP (tartrate resistant acid phosphatase) assay. The techniques comprising this method are described more fully in U.S. Pat. No. 6,673,771.
Osteoclast precursors were cultured in 96-well plates (1×10^5/mL, 200 μL/well) for 3 days in the presence of murine CSF-1 (30 ng/mL) and TRANCE (300 ng/mL) with or without the compounds of Formulae III-1 and II-A-1 at the indicated concentration. After 3 days, the cells were fixed and stained for tartrate-resistant acid phosphatase (TRAP). TRAP-positive multinucleated cells were counted as osteoclast-like multinucleated cells.

With `CC12CC[C@H]3[C@@H](CCC4(O)CC(OC(=O)CCC(=O)O)CCC34COC(=O)CCC(=O)O)C1(O)CCC2C1=CC(=O)OC1` (some centres unmarked) [III-1], the “inhibition of TRANCE induced osteoclast formation (TRAP-positive multinucleated cells)” value is “inhibited TRANCE induced osteoclast formation in vitro in a dose-dependent manner”. Consider `CC(=O)OCC12CCC(OC(C)=O)CC1(O)CC[C@@H]1[C@@H]2CCC2(C)C(C3=CC(=O)OC3)CCC12O` (some centres unmarked) [II-A-1], for which the “inhibition of TRANCE induced osteoclast formation (TRAP-positive multinucleated cells)” value is given as “inhibited TRANCE induced osteoclast formation in vitro in a dose-dependent manner”.
